Test in all cases: NCI anticancer screen, dose series, 48 h
Test [1] has as its system RPMI-8226 leukemia.
For test [2], the system named is T-47D breast.
Test [3] concerns HT29 colon.
Test [4] concerns SN12C renal.
In test [5] the test system is SW-620 colon.
For test [6], the system named is MDA-MB-435.
For test [7], the system named is SNB-75 CNS.
Test [8] concerns 786-0 renal.
Test [9] has as its system NCI-H522 lung.
Test [10] deals with HL-60(TB) leukemia.

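Interpolation was linear, between the two tested concentrations surrounding the appropriate level; five concentrations were tested over 48 hours in 96-well plates. GI50: concentration for 50% inhibition of growth. TGI: total growth inhibition.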 Some results are limits rather than exact numbers.

In the case of `COc1ccccc1/C=C/C(=O)c1c(O)cc2occc2c1OC`, the GI50 in test [1] was 23.5 µM; in test [2], 55.9 µM; in test [3] it was > 100 µM; in test [4] it was > 100 µM; in test [5], > 100 µM; in test [6], 5.96 µM. Further, the GI50 in test [7] is 7.49 µM; in test [8], 35.3 µM; in test [9] it was > 100 µM. Besides, the TGI in test [1], in test [2], in test [3], in [4], in [5] and in test [6] was > 100 µM each time. For the same molecule, the TGI in test [7] was 26.3 µM; in [8] it was 98.4 µM; in test [9], > 100 µM.

In the case of `O=C(NCCc1ccccc1)C(c1ccccc1)(c1ccccc1)c1ccccc1`, the GI50 in test [1] was 15.9 µM; in test [2], 30.4 µM; in [4], 1.8 µM; in [5] it was 4.35 µM; in test [10] it was 38.7 µM; in test [6] it was 12.2 µM. For the same molecule, the GI50 in [7] is > 100 µM; in [8] it was 5.43 µM; in test [9], 13.1 µM. The TGI was > 100 µM in test [1]; > 100 µM in test [2]; 5.96 µM in [4]; > 100 µM in test [5]; > 100 µM in test [10]; 45.8 µM in test [6]. For the same molecule, the values for the TGI in test [7], in test [8] and in test [9] were > 100 µM, > 100 µM and 38.1 µM, respectively.

`CC(C)CC1C(=O)N2CCC[C@H]2C2(O)O[C@](NC(=O)C3C=C4c5cccc6[nH]c(Br)c(c56)C[C@H]4N(C)C3)(C(C)C)C(=O)N12` (stereo partly specified): the TGI in test [1] was > 100 µM; in test [2], > 100 µM; in test [3], > 100 µM; in [4] it was > 100 µM; in test [5], > 100 µM; in test [10] it was 29.3 µM. Further, the TGI in [6], in test [7] and in [8] was > 100 µM each time. The GI50 was 2.9 µM in [2]; 10.2 µM in [4]; 9.23 µM in test [5]; 3.8 µM in [10]; 16.7 µM in test [6]; 5.55 µM in test [7]. For the same molecule, the GI50 in test [8] was 25.7 µM.

As to `C[C@H]1CC[C@H]([C@@H](C)[C@H]2[C@@H](O)C[C@H]3[C@@H]4CC[C@H]5C[C@@H](O)CC[C@]5(C)[C@H]4CC[C@]23C)NC1`, the TGI in test [1] was determined as 30.7 µM; in test [2], 30.8 µM; in test [3], 34.2 µM; in test [4], 35.5 µM; in test [5], 41.9 µM; in test [10], 20.2 µM. The TGI came out at 32.3 µM in [6], 37.1 µM in test [8] and 30.8 µM in [9].

As for `COC(=O)C(Cc1cnc[nH]1)NC(=O)CNC(=O)CCCn1c(=O)c2c3ccccc3n(C)c2n2nnc(-c3ccccc3)c12` (stereo unspecified), the GI50 in [1], in test [2], in test [3], in test [4], in [5] and in test [6] was > 100 µM each time. The GI50 in [7], in test [8] and in test [9] was > 100 µM in each case. The TGI in [1], in test [2], in test [3], in test [4], in [5] and in [6] was > 100 µM throughout. Also, the TGI in test [7], in test [8] and in test [9] was > 100 µM throughout.

As for `CO/[N+]([O-])=C\C(=O)N/C=C/C(=O)O`, the TGI in [1], in [2], in test [4], in test [5], in test [10] and in test [6] was > 100 µM throughout. Moreover, the TGI in test [7], in test [8] and in [9] was > 100 µM throughout.

In the case of `COc1cc2c(c(OC)c1O)-c1ccc(OC)c(=O)cc1[C@@H](NC(=O)C(F)(F)F)CC2`, the TGI is 0.0699 µM in test [1]; > 100 µM in [2]; > 100 µM in test [4]; > 100 µM in test [5]; 2.55 µM in test [10]; 0.055 µM in test [6]. Further, the TGI in test [8] was > 100 µM; in test [9], 0.0665 µM.

Regarding `CCN(CC)CC.CCOc1ccc(NC(=O)N=C=[N-])cc1.[CH-]1CCCCC1.[CH-]1CCCCC1.[CH-]1CCCCC1.[Cl-].[Sn+4]`, the GI50 was 0.0199 µM in test [1]; 0.022 µM in test [3]; 0.0233 µM in test [4]; 0.0169 µM in test [5]; 0.0184 µM in [10]; 0.0151 µM in [6]. The GI50 in test [7] is 0.0244 µM; in test [8] it was 0.0157 µM; in [9], 0.0205 µM. The TGI stood at 0.064 µM in [1]; 0.0467 µM in test [3]; 0.0634 µM in test [4]; 0.0326 µM in test [5]; 0.0584 µM in [10]; 0.0296 µM in [6]. Also, the values for the TGI in test [7], in test [8] and in test [9] were 0.108 µM, 0.0372 µM and 0.0549 µM, respectively.

For `O=C(CSc1nc2ccccc2nc1-c1ccccc1)Nc1ccc(Cl)cc1`, the GI50 is 92.3 µM in test [1]; 13 µM in [2]; 25.1 µM in test [3]; 22.6 µM in test [4]; 38.9 µM in test [5]; 29.8 µM in test [6]. Besides, the GI50 in [7] is 18.7 µM; in test [8] it was 16 µM; in [9] it was 15.3 µM. Besides, the TGI in test [1] was > 100 µM; in test [2], > 100 µM; in [3], > 100 µM; in [4], 99.2 µM; in test [5], > 100 µM; in test [6] it was > 100 µM. Besides, the TGI in [7] was 59.4 µM; in test [8], 32.3 µM; in test [9], 74.3 µM.

In the case of `CCNCCC1(CC)C(=O)NC(=O)NC1=O`, the TGI in test [1], in test [2], in test [3], in test [4], in [5] and in [6] was > 100 µM throughout. Moreover, the TGI in test [7], in test [8] and in test [9] was > 100 µM in each case.

Values taken from PubChem BioAssay (NCI).
